# From patent US9062078B2, “Substituted 7-azabicyles and their use as orexin receptor modulators” (priority 2013, dated 2015)
# Like-named read-outs stand apart in the source and are kept apart here.
# What was measured:
# human orexin 1 receptor = human orexin 1 receptor (Homo sapiens (Human), UniProt O43613); test: Human orexin 1 receptor radioligand binding (competitive, [3H]-SB674042, CHO cell preparations)
# human orexin 2 receptor = human orexin 2 receptor (Homo sapiens (Human), UniProt O43614); test: Human orexin 2 receptor radioligand binding (competitive, [3H]-EMPA, HEK293 cell preparations)
# [1] = human orexin 1 receptor, [3H]-SB674042 competition binding, read-out: hOX1 Ki (nm)
# [2] = human orexin 2 receptor, [3H]-EMPA competition binding, read-out: hOX2 Ki (nm)
# Sequence of human orexin 1 receptor (O43613 whole entry): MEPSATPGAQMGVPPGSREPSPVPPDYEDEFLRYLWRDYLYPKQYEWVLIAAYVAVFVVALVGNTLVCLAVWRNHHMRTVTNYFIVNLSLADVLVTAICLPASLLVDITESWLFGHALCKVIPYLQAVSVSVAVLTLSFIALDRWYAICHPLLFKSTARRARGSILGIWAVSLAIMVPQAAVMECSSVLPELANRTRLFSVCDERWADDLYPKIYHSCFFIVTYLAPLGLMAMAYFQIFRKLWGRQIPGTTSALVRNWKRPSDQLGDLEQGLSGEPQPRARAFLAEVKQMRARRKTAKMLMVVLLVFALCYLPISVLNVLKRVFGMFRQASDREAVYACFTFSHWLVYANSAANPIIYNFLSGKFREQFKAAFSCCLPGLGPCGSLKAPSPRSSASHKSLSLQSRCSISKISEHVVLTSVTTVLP
# Sequence of human orexin 2 receptor (O43614 whole entry): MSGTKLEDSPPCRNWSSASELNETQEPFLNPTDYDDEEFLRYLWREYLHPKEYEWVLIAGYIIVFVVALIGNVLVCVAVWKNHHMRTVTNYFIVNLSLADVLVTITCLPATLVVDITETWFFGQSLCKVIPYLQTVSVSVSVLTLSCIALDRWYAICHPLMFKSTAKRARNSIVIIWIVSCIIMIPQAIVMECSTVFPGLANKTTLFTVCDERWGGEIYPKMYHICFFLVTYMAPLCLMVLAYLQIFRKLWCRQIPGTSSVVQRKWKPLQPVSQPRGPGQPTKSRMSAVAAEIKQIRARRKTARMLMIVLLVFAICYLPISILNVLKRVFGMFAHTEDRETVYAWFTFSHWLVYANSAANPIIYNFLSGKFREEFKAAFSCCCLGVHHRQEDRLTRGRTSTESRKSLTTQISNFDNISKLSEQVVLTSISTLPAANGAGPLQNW
Compound,Ki (human orexin 1 receptor; [1]),Ki (human orexin 2 receptor; [2]),Ki (human orexin 1 receptor; hOX1 Ki (nm)),Ki (human orexin 2 receptor; hOX2 Ki (nm))
"Cc1noc(-c2ccccc2C(=O)N2C3CCC2C(COc2ccccn2)C3)n1 (racemic) [Example 127, (±)-(2-(3-methyl-1,2,4-oxadiazol-5-yl)phenyl)(2-((pyridin-2-yloxy)methyl)-7-azabicyclo[2.2.1]heptan-7-yl)methanone]",190 nM,1100 nM,,
"Cc1ccc(C(=O)N2C3CCC2C(COc2ccccn2)C3)c(-n2nccn2)n1 (racemic) [Example 128, (±)-(6-methyl-2-(2H-1,2,3-triazol-2-yl)pyridin-3-yl)(2-((pyridin-2-yloxy)methyl)-7-azabicyclo[2.2.1]heptan-7-yl)methanone]",5700 nM,≥ 10000 nM,,
"O=C(c1cccc(F)c1-n1nccn1)N1C2CCC1C(COc1ccccn1)C2 (racemic) [Example 129, (±)-(3-fluoro-2-(2H-1,2,3-triazol-2-yl)phenyl)(2-((pyridin-2-yloxy)methyl)-7-azabicyclo[2.2.1]heptan-7-yl)methanone]",190 nM,1000 nM,,
"Cc1ccc(C(=O)N2C3CCC2C(COc2ccccn2)C3)c(-n2ccnn2)n1 (racemic) [Example 130, (±)-(6-methyl-2-(1H-1,2,3-triazol-1-yl)pyridin-3-yl)(2-((pyridin-2-yloxy)methyl)-7-azabicyclo[2.2.1]heptan-7-yl)methanone]",3700 nM,7200 nM,,
"Cc1ccc(C(=O)N2C3CCC2C(COc2nccc(C(F)(F)F)n2)C3)c(-n2nccn2)n1 (racemic) [Example 131, (±)-(6-methyl-2-(2H-1,2,3-triazol-2-yl)pyridin-3-yl)(2-(((4-(trifluoromethyl)pyrimidin-2-yl)oxy)methyl)-7-azabicyclo[2.2.1]heptan-7-yl)methanone]",,,≥ 10000 nM,≥ 10000 nM
"Cc1ccc(C(=O)N2C3CCC2C(COc2nccc(C(F)(F)F)n2)C3)c(-n2ccnn2)n1 (racemic) [Example 132, (±)-(6-methyl-2-(1H-1,2,3-triazol-1-yl)pyridin-3-yl)(2-(((4-(trifluoromethyl)pyrimidin-2-yl)oxy)methyl)-7-azabicyclo[2.2.1]heptan-7-yl)methanone]",,7400 nM,≥ 10000 nM,
"Cc1noc(-c2ccccc2C(=O)N2C3CCC2C(COc2nccc(C(F)(F)F)n2)C3)n1 (racemic) [Example 133, (±)-(2-(3-methyl-1,2,4-oxadiazol-5-yl)phenyl)(2-(((4-(trifluoromethyl)pyrimidin-2-yl)oxy)methyl)-7-azabicyclo[2.2.1]heptan-7-yl)methanone]",1400 nM,950 nM,,
"O=C(c1cccc(F)c1-n1nccn1)N1C2CCC1C(COc1nccc(C(F)(F)F)n1)C2 (racemic) [Example 134, (±)-(3-fluoro-2-(2H-1,2,3-triazol-2-yl)phenyl)(2-(((4-(trifluoromethyl)pyrimidin-2-yl)oxy)methyl)-7-azabicyclo[2.2.1]heptan-7-yl)methanone]",,,1500 nM,690 nM
"Cc1ccc(OCC2CC3CCC2N3C(=O)c2ccc(C)nc2-n2nccn2)nc1 (racemic) [Example 135, (±)-(6-methyl-2-(2H-1,2,3-triazol-2-yl)pyridin-3-yl)(2-(((5-methylpyridin-2-yl)oxy)methyl)-7-azabicyclo[2.2.1]heptan-7-yl)methanone]",,3900 nM,5400 nM,
"Cc1ccc(OCC2CC3CCC2N3C(=O)c2ccc(C)nc2-n2ccnn2)nc1 (racemic) [Example 136, (±)-(6-methyl-2-(1H-1,2,3-triazol-1-yl)pyridin-3-yl)(2-(((5-methylpyridin-2-yl)oxy)methyl)-7-azabicyclo[2.2.1]heptan-7-yl)methanone]",,1200 nM,6800 nM,
"Cc1ccc(OCC2CC3CCC2N3C(=O)c2ccccc2-c2nc(C)no2)nc1 (racemic) [Example 137, (±)-(2-(3-methyl-1,2,4-oxadiazol-5-yl)phenyl)(2-(((5-methylpyridin-2-yl)oxy)methyl)-7-azabicyclo[2.2.1]heptan-7-yl)methanone]",950 nM,425 nM,,
"Cc1ccc(OCC2CC3CCC2N3C(=O)c2cccc(F)c2-n2nccn2)nc1 (racemic) [Example 138, (±)-(3-fluoro-2-(2H-1,2,3-triazol-2-yl)phenyl)(2-(((5-methylpyridin-2-yl)oxy)methyl)-7-azabicyclo[2.2.1]heptan-7-yl)methanone]",606 nM,250 nM,,
"Cc1cccc(OCC2CC3CCC2N3C(=O)c2ccc(C)nc2-n2nccn2)n1 (racemic) [Example 139, (±)-(6-methyl-2-(2H-1,2,3-triazol-2-yl)pyridin-3-yl)(2-(((6-methylpyridin-2-yl)oxy)methyl)-7-azabicyclo[2.2.1]heptan-7-yl)methanone]",4400 nM,6500 nM,,
"Cc1cccc(OCC2CC3CCC2N3C(=O)c2ccc(C)nc2-n2ccnn2)n1 (racemic) [Example 140, (±)-(6-methyl-2-(1H-1,2,3-triazol-1-yl)pyridin-3-yl)(2-(((6-methylpyridin-2-yl)oxy)methyl)-7-azabicyclo[2.2.1]heptan-7-yl)methanone]",3100 nM,2300 nM,,
"Cc1cccc(OCC2CC3CCC2N3C(=O)c2ccccc2-c2nc(C)no2)n1 (racemic) [Example 141, (±)-(2-(3-methyl-1,2,4-oxadiazol-5-yl)phenyl)(2-(((6-methylpyridin-2-yl)oxy)methyl)-7-azabicyclo[2.2.1]heptan-7-yl)methanone]",280 nM,300 nM,,
"Cc1cccc(OCC2CC3CCC2N3C(=O)c2cccc(F)c2-n2nccn2)n1 (racemic) [Example 142, (±)-(3-fluoro-2-(2H-1,2,3-triazol-2-yl)phenyl)(2-(((6-methylpyridin-2-yl)oxy)methyl)-7-azabicyclo[2.2.1]heptan-7-yl)methanone]",207 nM,300 nM,,
"Cc1ccc(C(=O)N2C3CCC2C(COc2cccc(C(F)(F)F)n2)C3)c(-n2nccn2)n1 (racemic) [Example 143, (±)-(6-methyl-2-(2H-1,2,3-triazol-2-yl)pyridin-3-yl)(2-(((6-(trifluoromethyl)pyridin-2-yl)oxy)methyl)-7-azabicyclo[2.2.1]heptan-7-yl)methanone]",3900 nM,,,4600 nM
"Cc1ccc(C(=O)N2C3CCC2C(COc2cccc(C(F)(F)F)n2)C3)c(-n2ccnn2)n1 (racemic) [Example 144, (±)-(6-methyl-2-(1H-1,2,3-triazol-1-yl)pyridin-3-yl)(2-(((6-(trifluoromethyl)pyridin-2-yl)oxy)methyl)-7-azabicyclo[2.2.1]heptan-7-yl)methanone]",3600 nM,,,3200 nM
"Cc1noc(-c2ccccc2C(=O)N2C3CCC2C(COc2cccc(C(F)(F)F)n2)C3)n1 (racemic) [Example 145, (±)-(2-(3-methyl-1,2,4-oxadiazol-5-yl)phenyl)(2-(((6-(trifluoromethyl)pyridin-2-yl)oxy)methyl)-7-azabicyclo[2.2.1]heptan-7-yl)methanone]",340 nM,,,330 nM
"O=C(c1cccc(F)c1-n1nccn1)N1C2CCC1C(COc1cccc(C(F)(F)F)n1)C2 (racemic) [Example 146, (±)-(3-fluoro-2-(2H-1,2,3-triazol-2-yl)phenyl)(2-(((6-(trifluoromethyl)pyridin-2-yl)oxy)methyl)-7-azabicyclo[2.2.1]heptan-7-yl)methanone]",180 nM,196 nM,,
"Cc1ccc(C(=O)N2C3CCC2C(COc2cnc4ccccc4n2)C3)c(-n2ccnn2)n1 (racemic) [Example 148, (±)-(6-methyl-2-(1H-1,2,3-triazol-1-yl)pyridin-3-yl)(2-((quinoxalin-2-yloxy)methyl)-7-azabicyclo[2.2.1]heptan-7-yl)methanone]",6300 nM,3200 nM,,
"Cc1noc(-c2ccccc2C(=O)N2C3CCC2C(COc2cnc4ccccc4n2)C3)n1 (racemic) [Example 149, (±)-(2-(3-methyl-1,2,4-oxadiazol-5-yl)phenyl)(2-((quinoxalin-2-yloxy)methyl)-7-azabicyclo[2.2.1]heptan-7-yl)methanone]",220 nM,2000 nM,,
"O=C(c1cccc(F)c1-n1nccn1)N1C2CCC1C(COc1cnc3ccccc3n1)C2 (racemic) [Example 150, (±)-(3-fluoro-2-(2H-1,2,3-triazol-2-yl)phenyl)(2-((quinoxalin-2-yloxy)methyl)-7-azabicyclo[2.2.1]heptan-7-yl)methanone]",180 nM,990 nM,,
"Cc1cc(C)nc(OCC2CC3CCC2N3C(=O)c2ccc(C)nc2-n2nccn2)n1 (racemic) [Example 151, (±)-(2-(((4,6-dimethylpyrimidin-2-yl)oxy)methyl)-7-azabicyclo[2.2.1]heptan-7-yl)(6-methyl-2-(2H-1,2,3-triazol-2-yl)pyridin-3-yl)methanone]",≥ 10000 nM,≥ 10000 nM,,
"Cc1cc(C)nc(OCC2CC3CCC2N3C(=O)c2ccc(C)nc2-n2ccnn2)n1 (racemic) [Example 152, (±)-(2-(((4,6-dimethylpyrimidin-2-yl)oxy)methyl)-7-azabicyclo[2.2.1]heptan-7-yl)(6-methyl-2-(1H-1,2,3-triazol-1-yl)pyridin-3-yl)methanone]",≥ 10000 nM,5900 nM,,
"Cc1cc(C)nc(OCC2CC3CCC2N3C(=O)c2ccccc2-c2nc(C)no2)n1 (racemic) [Example 153, (±)-(2-(((4,6-dimethylpyrimidin-2-yl)oxy)methyl)-7-azabicyclo[2.2.1]heptan-7-yl)(2-(3-methyl-1,2,4-oxadiazol-5-yl)phenyl)methanone]",1100 nM,440 nM,,
"Cc1cc(C)nc(OCC2CC3CCC2N3C(=O)c2cccc(F)c2-n2nccn2)n1 (racemic) [Example 154, (±)-(2-(((4,6-dimethylpyrimidin-2-yl)oxy)methyl)-7-azabicyclo[2.2.1]heptan-7-yl)(3-fluoro-2-(2H-1,2,3-triazol-2-yl)phenyl)methanone]",690 nM,,,300 nM
"CCOc1ccccc1C(=O)N1C2CCC1C(COc1ccc(F)cn1)C2 (racemic) [Example 165, (±)-(2-ethoxyphenyl)(2-(((5-fluoropyridin-2-yl)oxy)methyl)-7-azabicyclo[2.2.1]heptan-7-yl)methanone]",,550 nM,409 nM,
